The record followed here is patent US20100062441A1, “C-MET MUTATIONS AND USES THEREOF” (priority 2007, published 2010).

As usually defined, the inhibition is the share of the control response that was lost under treatment. Read a low inhibition as little suppression.

Assay [1] relates to SCCHN cell lines. In words: Viability/growth by MTT and/or Cyquant. It counts as cell-based, human. The conditions noted are these: several cell lines. From the text: Specific inhibition of c-Met by small molecule inhibitors can also be determined. […] Both SU11274 (1st generation) and Compound X (3rd generation) were used to test for their respective inhibitory effects on SCCHN cell lines.

The test system of assay [2] is reactive oxygen species (ROS) in MU melanoma cells. Nature of the assay: Reactive oxygen species measurement by DHE immunofluorescence. The class given is cell-based, human. To be noted: 5 μM SU11274 for 12 hrs; HGF 40 ng/ml. As to the method: 5×10^4 MU melanoma cells were plated in 35 mm petri dishes. After 24 hrs MU Melanoma cells were kept in serum free media containing 0.5% BSA with and without 5 μM SU11274 for 12 hrs. Cells were treated with 40 ng/ml HGF for 7.5 min, then treated with DHE 10 μM (molecular probes Inc, Eugene, Oreg.) for 30 min, after which they were visualized under a fluorescent Olympus microscope IX81, 20× objective, ND3 and Rhodamine filter sets. Fluorescence was then quantified using Image J and graphed.
The endogenous levels of reactive oxygen species (ROS) was also analyzed in MU melanoma cells with and without HGF treatment using DHE by fluorescence microscopy. DHE is a redox sensitive probe that has widely been used to detect intracellular superoxide anion. The relative levels of ROS were increased in response to HGF by 47%, and SU11274 decreased the ROS response to HGF to 3%.

For assay [3], the system named is c-Met phosphorylation in SCCHN cell lines. In words: c-Met phosphorylation and downstream signaling after HGF stimulation. It counts as cell-based, human.
Assay [4] concerns SCCHN cell lines. Nature of the assay: Cell motility and migration. It counts as cell-based, human. From the text:
c-Met is known to have a significant role in cell scattering and possibly metastatic spread (Ren et al., Clin Cancer Res, 11, (17), 6190-7 (2005) and Endo, et al., Hum Pathol, 37, (8), 1111-6 (2006)). Here, the effects of c-Met suppression on cell motility and migration as a surrogate marker for metastatic spread was investigated. […] The degree of downstream modulation varied by cell line.

In assay [5] the test system is MU melanoma cells. Nature of the assay: Differentiation of melanoma cells (morphology). The conditions noted are these: 72 hrs with 5 μM SU11274. The class given is cell-based, human. The procedure: Thus SU11274 could induce a differentiated phenotype in a wide variety of melanoma cells melanized, amelanotic, less and more differentiated melanoma cells.
The effect of si RNA against c-Met was also studied on the proliferation and differentiation of MU melanoma cells. […] SU11274 at 5 μM and 10 μM inhibited the growth of melanoma cells by 72% and 88% respectively. The inhibitory effect of SU11274 was more pronounced than si RNA since SU11274 is a potent and selective inhibitor of c-Met activity and function. […] Similar to SU11274 c-Met Si RNA 12 hrs after transfection induced an increase in MITF (4 fold) and several of the melanocyte differentiation antigens tyrosinase (4-fold), gp-100 (2-fold) and MART-1 (2-fold) which have been targets for immunotherapy. The increase in the level of various differentiation proteins was determined by densiometric anaylsis after treatment with c-Met si RNA.

Assay [6] has as its system c-Met dependent signaling in MM-MC melanoma cells. Nature of the assay: Phosphorylation of c-Met and signaling molecules via HGF, immunoblotting. It counts as cell-based, human. To be noted: MM-MC (c-Met mutation). The procedure:
(§1) MU and MC cells that expressed c-Met were deprived of growth factors by incubation in serum free medium containing 0.5% BSA for 24 hours with or without SU11274 (5 μM). After treatment with or without SU11274 in serum free medium, cells were stimulated with or without HGF (EMD Biosciences, San Diego, Calif.) at 40 ng/ml for 7.5 minutes at 37° C. After harvesting, the cells were subjected to the standard procedures of immunoblotting. Antibodies specifically against phosphorylated c-Met, and other proteins are as described above.
(§2) The ability of SU11274 to inhibit activation of c-Met was examined by immunoblotting. Treatment with HGF increased the autophosphorylation of c-MET at the activation loop site phospho-epitope [pY1230/1234/1235]. […] HGF binding to c-Met activated its' tyrosine kinase, AKT (S-473) and S-6 kinase (T-421/S424).

Assay [7] has as its system c-Met dependent signaling in MU melanoma cells. Described as above. The class given is cell-based, human. The procedure: as §1, §2
Assay [8] deals with MU melanoma cells. Nature of the assay: Proliferation / growth of melanoma cells. It counts as cell-based. To be noted: Homo sapiens. The procedure:
For measuring the effect of SU11274 on growth of melanoma cells, MM-AN, MU, PM-WK, MM-RU, MM-MC and RPM-EP cells were plated at 6×10^4 cells in 60 mm dishes in MEM with 10% serum. After 24 hrs different concentrations of SU11274 were added and after 96 hrs cells were trypsinized and counted in a cell counter (Beckman Coulter). Each data point was repeated in triplicate.
siRNA against c-Met was obtained from Dharmacon (Lafayette, Colo.). Briefly four pooled SiRNA duplexes were transiently transfected into MU melanoma cells by the Dharmacon protocol utilizing Oligofectamine obtained from Invitrogen (Carlsbad, Calif.). Mock transfection was done in parallel using SignalSilence control SiRNA (Cell Signaling Technology) as negative control. For studies on the effect of Si RNA on differentiation proteins MU melanoma cells were transfected with Si RNA as described above and cell lysates were prepared after 12 hrs and immunoblotting performed as described above.
The effect of si RNA against c-Met was also studied on the proliferation and differentiation of MU melanoma cells. […] SU11274 at 5 μM and 10 μM inhibited the growth of melanoma cells by 72% and 88% respectively. […] The increase in the level of various differentiation proteins was determined by densiometric anaylsis after treatment with c-Met si RNA.

Molecules are shown by their SMILES.

Regarding `Cc1[nH]c(/C=C2\C(=O)Nc3ccc(S(=O)(=O)N(C)c4cccc(Cl)c4)cc32)c(C)c1C(=O)N1CCN(C)CC1` [SU11274, (3Z)-N-(3-chlorophenyl)-3-({3,5-dimethyl-4-[(4-methylpiperazin-1-yl)carbonyl]-1H-pyrrol-2-yl}methylene)-N-methyl-2-oxo-2,3-dihydro-1H-indole-5-sulfonamide], the viability/growth result in assay [1] is given as “markedly decreased”. In addition, the “ROS response to HGF” value in assay [2] came to 3%. Moreover, the c-Met phosphorylation result in assay [3] (all cell lines tested, HGF stimulation) is given as “Marked inhibition”. The “downstream phosphorylation of SHP2, AKT, ERK” value in assay [3] (degree varied by cell line) is “affected downstream phosphorylation of SHP2, AKT, and to a lesser degree ERK”. Besides, in assay [4], the cell motility result is recorded as “marked decrease”. Further, the “change in morphology / differentiated phenotype” value in assay [5] is “became very dendritic and differentiated”. In addition, the “phosphorylation of c-Met and AKT” value in assay [6] and in assay [7] (MU (no c-Met mutation)) was “inhibited” each time. The BCLXL level entry in assay [7] was “downregulated”. In addition, the “HGF induced phosphorylation of c-Met, AKT and S6 kinase” value in assay [7] (5 μM) was “completely inhibited”. Also, the “autophosphorylation of c-MET at activation loop site [pY1230/1234/1235]” value in assay [7] (HGF stimulated) is on record as “completely abolished”. In assay [8] (5 μM), the inhibition at 5 µM was 72%. In addition, in assay [8] (10 μM), the inhibition at 10 µM amounted to 88%.
